Test results: patent publication US5795887A, “Method of inducing cholecystokinin agonist activity using 1,4- Benzodiazepine compounds” (Glaxo Wellcome Inc., priority 1994, dated 1998)

Test system: isolated guinea pig gallbladder
Assay: Isolated guinea pig gallbladder assay (contraction, % CCK-induced maximal response)
Conditions: Cavia porcellus, Table 1; for % contraction at 30 µM: read-out: % Contraction (30 μM), expressed as % CCK-induced maximal response; for % contraction at 1 µM: read-out: % Contraction (1 μM), expressed as % CCK-induced maximal response
Experimental: 3. GUINEA PIG GALL BLADDER ASSAY
Gallbladders are removed from guinea pigs sacrificed by cervical dislocation. The isolated gallbladders are cleaned of adherent connective tissue and cut into two rings from each animal (2-6 mm in length). […] Tissues are connected via gold chains and stainless steel mounting wires to isometric force displacement transducers (Grass, Model FT03 D). Responses are then recorded on a polygraph (Grass, Model 7E).
Rings are gradually stretched (over a 120 min. period) to a basal resting tension of 1 gm which is maintained throughout the experiment. During the basal tension adjustment period, the rings are exposed to acetylcholine (10^-6 M) four times to verify tissue contractility. The tissues are then exposed to a submaximal dose of sulfated CCK-8 (Sigma, 3×10^-9 M). After obtaining a stable response, the tissues are washed out 3 times rapidly and every 5 to 10 minutes for 1 hour to reestablish a stable baseline.
As a final test, ACH (10 μM) is added to induce maximal contraction.

SMILES	% contraction at 30 µM [%]	% contraction at 1 µM [%]
CC(C)N(C(=O)CN1C(=O)C(NC(=O)Nc2cccc(-c3nn[nH]n3)c2)N=C(c2ccccc2)c2ccccc21)c1ccccc1 (centres unmarked) [Example 1, 1N-Isopropyl-2-(2-oxo-5-phenyl-3-{3-[3-(1H-tetrazol-5-yl)-phenyl]-ureido}-2,3-dihydro-benzo[e][1,4]diazepin-1-yl)-N-phenyl-acetamide]	63	
CC1=NC(NC(=O)Nc2ccccc2)C(=O)N(CC(=O)N(c2ccccc2)C(C)C)c2ccccc21 (centres unmarked) [Example 2, N-Isopropyl-2-[5-methyl-2-oxo-3-(3-phenyl-ureido)-2,3-dihydro-benzo[e][1,4]diazepin-1-yl]-N-phenyl-acetamide]	88	
CC(C)N(C(=O)CN1C(=O)C(NC(=O)Nc2ccccc2)N=C(c2ccccc2)c2ccccc21)c1ccccc1 (centres unmarked) [Example 3]	38	
CC1=NC(NC(=O)Nc2cccc3cn[nH]c23)C(=O)N(CC(=O)N(c2ccccc2)C(C)C)c2ccccc21 (centres unmarked) [Example 4]	59	23
CC(C)N(C(=O)CN1C(=O)C(NC(=O)Nc2cccc(C(=O)O)c2)N=C(c2ccccc2)c2ccccc21)c1ccccc1 (centres unmarked) [Example 5, 3-{3-[1-(Isopropyl-phenyl-carbamoylmethyl)-2-oxo-5-phenyl-2,3-dihydro-1H-benzo[e][1,4]diazepin-3-yl]-ureido}-benzoic acid]	82	
CC(C)N(C(=O)CN1C(=O)C(NC(=O)c2ccc(Cl)cc2N)N=C(c2ccccc2)c2ccccc21)c1ccccc1 (centres unmarked) [Example 6, 2-Amino-4-chloro-N-[1-(isopropyl-phenyl-carbamoylmethyl)-5-phenyl-2-oxo-5-phenyl-2,3-dihydro-1H-benzo[e][1,4]diazepin-3-yl]-benzamide]		41
CC1=NC(NC(=O)Nc2cccc(C(=O)O)c2)C(=O)N(CC(=O)N(c2ccccc2)C(C)C)c2ccccc21 (centres unmarked) [Example 7, 3-{3-[1-(Isopropyl-phenyl-carbamoylmethyl)-5-methyl-2-oxo-2,3-dihydro-1H-benzo[e][1,4]diazepin-3-yl]-ureido}-benzoic acid]	61	16
COc1ccc(N(C(=O)CN2C(=O)C(NC(=O)Nc3cccc(C(=O)O)c3)N=C(c3ccccc3)c3ccccc32)C(C)C)cc1 (centres unmarked) [Example 8, 3-(3-{1-[Isopropyl-(4-methoxy-phenyl)-carbamoylmethyl]-2-oxo-5-phenyl-2,3-dihydro-1H-benzo[e][1,4]diazepin-3yl}-ureido)-benzoic acid]	86	59
CC(C)N(C(=O)CN1C(=O)C(NC(=O)Nc2cccc(C(=O)O)c2)N=C(c2ccccc2)c2ccccc21)c1ccc(N(C)C)cc1 (centres unmarked) [Example 9, 3-(3-{1-[(4-Dimethylamino-phenyl)-isopropyl-carbamoylmethyl]-2-oxo-5-phenyl-2,3-dihydro-1H-benzo[e][1,4]diazepin-3-yl}-ureido)-benzoic acid]	62	73
COc1ccc(N(C(=O)CN2C(=O)C(CC(=O)Nc3cccc(C(=O)O)c3)N=C(c3ccccc3)c3ccccc32)C(C)C)cc1 (centres unmarked) [Example 10, 3-(2-{1-[Isopropyl-(4-methoxy-phenyl)-carbamoylmethyl]-2-oxo-5-phenyl-2,3-dihydro-1H-benzo[e][1,4]diazepin-3-yl}-acetyl-amino)-benzoic acid]		54
COc1ccc(N(C(=O)CN2C(=O)C(CC(=O)Nc3ccccc3)N=C(c3ccccc3)c3ccccc32)C(C)C)cc1 (centres unmarked) [Example 11, 2-{1-[Isopropyl-(4-methoxy-phenyl)-carbamoylmethyl]-2-oxo-5-phenyl-2,3-dihydro-1H-benzo[e][1,4]diazepin-3-yl}N-phenyl-acetamide]	43	56
CC(C)N(C(=O)CN1C(=O)[C@@H](NC(=O)Nc2cccc(C(=O)O)c2)N=C(c2ccccc2)c2ccccc21)c1ccccc1 [Example 12, (S)-3-{3-[1-(Isopropyl-phenyl-carbamoylmethyl)-2-oxo-5-phenyl-2,3-dihydro-1H-benzo[e][1,4]diazepin-3-yl]-ureido}-benzoic acid]	80	
